“And” between values parts separate entries of the source, which are not always exact repeats. Equal entries are not always repeated. Inconclusive results and toxic doses are left out.
System: AKR/Lw mice, AKR lymphoma ip, median survival T/C
Assay: NCI In Vivo Anticancer Drug Screen. Data for tumor model Lymphoma AKR (Transplanted) (intraperitoneal) in AKR/Lw mice
Conditions: endpoint: median survival time, higher = longer survival
Procedure: The antitumor activity of compounds was measured in mice bearing transplantable tumors. Survival or tumor size were measured and the results are expressed as the measurement made in the treated group (T) divided by the measurement made in the vehicle treated control group (C). The tumor model used in this assay is Lymphoma AKR (Transplanted) (intraperitoneal) in AKR/Lw mice

[1] = dose: 100.0 mg/kg/injection, schedule: Q01DX001 (ip), vehicle: Klucel (hydroxypropylcellulose) (HPC)
[2] = dose: 200.0 mg/kg/injection, schedule: Q01DX001 (ip), vehicle: Klucel (hydroxypropylcellulose) (HPC)
[3] = dose: 400.0 mg/kg/injection, schedule: Q01DX001 (ip), vehicle: Klucel (hydroxypropylcellulose) (HPC)
[4] = dose: 100.0 mg/kg/injection, schedule: Q01DX001 (ip), vehicle: saline
[5] = dose: 200.0 mg/kg/injection, schedule: Q01DX001 (ip), vehicle: saline
[6] = dose: 400.0 mg/kg/injection, schedule: Q01DX001 (ip), vehicle: saline
[7] = dose: 100.0 mg/kg/injection, schedule: Q04DX003 (ip), vehicle: Klucel (hydroxypropylcellulose) (HPC)
[8] = dose: 200.0 mg/kg/injection, schedule: Q04DX003 (ip), vehicle: Klucel (hydroxypropylcellulose) (HPC)
[9] = dose: 25.0 mg/kg/injection, schedule: Q04DX003 (ip), vehicle: saline
[10] = dose: 100.0 mg/kg/injection, schedule: Q04DX003 (ip), vehicle: saline
[11] = dose: 150.0 mg/kg/injection, schedule: Q01DX001 (ip), vehicle: saline

In the case of CCN(CC)CCOc1ccc2c(c1)C(=O)c1cc(OCCN(CC)CC)ccc1-2, the T/C (dose: 2.5 mg/kg/injection, schedule: Q01DX001 (ip), vehicle: saline) is reported as 106 % of control, the T/C (dose: 5.0 mg/kg/injection, schedule: Q01DX001 (ip), vehicle: saline) is reported as 106 % of control and the T/C (dose: 10.0 mg/kg/injection, schedule: Q01DX001 (ip), vehicle: saline) is reported as 106 % of control. For the same compound, the T/C (dose: 20.0 mg/kg/injection, schedule: Q01DX001 (ip), vehicle: saline) was 100 % of control, the T/C (dose: 25.0 mg/kg/injection, schedule: Q01DX007 (ip), vehicle: saline) was 272 % of control and the T/C (dose: 50.0 mg/kg/injection, schedule: Q01DX001 (ip), vehicle: saline) was 102 % of control. The T/C (dose: 50.0 mg/kg/injection, schedule: Q01DX007 (ip), vehicle: saline) was 102 % of control.

COc1cc2c(cc1OC)C1CCN3CCCC3N1CC2 (configuration not stated) was tested, and the T/C [1] was 100 % of control.

With C/C=C(/Cl)c1c(C)cc(C)c(CC(=O)O)c1C the T/C [2] was 106 % of control and the T/C [3] was 109 % of control.

In the case of COc1cc2c(cc1OC)C13CCN4CC5=CCOC6CC(=O)N2C1C6C5CC43 (configuration not stated) (tested in a mixture with another compound), the T/C (dose: 45.0 mg/kg/injection, schedule: Q01DX001 (ip), vehicle: Klucel (hydroxypropylcellulose) (HPC)) is reported as 100 % of control, the T/C (dose: 65.0 mg/kg/injection, schedule: Q01DX001 (ip), vehicle: Klucel (hydroxypropylcellulose) (HPC)) is reported as 100 % of control and the T/C [1] is reported as 106 % of control and 108 % of control. For the same compound, the T/C (dose: 150.0 mg/kg/injection, schedule: Q01DX001 (ip), vehicle: Klucel (hydroxypropylcellulose) (HPC)) was 100 % of control.

For CC[CH](C)[Hg][c]1cccc2ccccc12 (configuration not stated), the T/C [1] was 91 % of control and the T/C [2] was 86 % of control.

With COc1cccc2c1CCC1=C2CC2C(=O)C1CCC2(C)O (configuration not stated) the T/C [4] was 88 % of control, the T/C [5] was 97 % of control and the T/C [6] was 100 % of control.

For S=c1[nH]nc(NC2CCCCC2)s1, the T/C [1] was 100 % of control, the T/C [7] was 100 % of control and the T/C [2] was 90 % of control. The T/C [8] was 90 % of control and the T/C [3] was 87 % of control.

For CC(C)OC(=O)Oc1cccc2c1C(=O)c1ccccc1C2=O, the T/C [1] was 95 % of control and the T/C [2] was 91 % of control.

In the case of Cc1ccc(N2C(=O)CC(Sc3ccccc3N)C2=O)cc1 (configuration not stated), the T/C (dose: 50.0 mg/kg/injection, schedule: Q04DX003 (ip), vehicle: Klucel (hydroxypropylcellulose) (HPC)) is reported as 100 % of control, the T/C [1] is reported as 100 % of control and the T/C [7] is reported as 90 % of control. For the same compound, the T/C [8] was 90 % of control.

In the case of Nc1ccccc1SC1CC(=O)N(c2ccc(I)cc2)C1=O (configuration not stated), the T/C [1] is reported as 93 % of control, the T/C [7] is reported as 90 % of control and the T/C [8] is reported as 86 % of control.

O=c1[nH]c(=O)n(C2CC(O)C(CO)O2)cc1F (configuration not stated) was tested, and the T/C (dose: 3.1 mg/kg/injection, schedule: Q04DX003 (ip), vehicle: saline) was 100 % of control, the T/C (dose: 5.0 mg/kg/injection, schedule: Q01DX009 (ip), vehicle: saline) was 100 % of control and the T/C (dose: 6.2 mg/kg/injection, schedule: Q04DX003 (ip), vehicle: saline) was 92 % of control. The T/C (dose: 6.25 mg/kg/injection, schedule: Q01DX009 (ip), vehicle: saline) was 104 % of control, the T/C (dose: 10.0 mg/kg/injection, schedule: Q01DX009 (ip), vehicle: saline) was 106 % of control and the T/C (dose: 11.0 mg/kg/injection, schedule: Q01DX015 (ip), vehicle: saline) was 86 % of control. The T/C (dose: 12.5 mg/kg/injection, schedule: Q01DX015 (ip), vehicle: saline) was 117 % of control, the T/C (dose: 12.5 mg/kg/injection, schedule: Q04DX003 (ip), vehicle: saline) was 94 % of control and 102 % of control and the T/C (dose: 15.0 mg/kg/injection, schedule: Q01DX009 (ip), vehicle: saline) was 102 % of control and 123 % of control. For the same compound, the T/C (dose: 16.5 mg/kg/injection, schedule: Q01DX015 (ip), vehicle: saline) was 86 % of control, the T/C (dose: 25.0 mg/kg/injection, schedule: Q01DX015 (ip), vehicle: saline) was 113 % of control and the T/C [9] was 90 % of control and 97 % of control. For the same compound, the T/C (dose: 40.0 mg/kg/injection, schedule: Q01DX015 (ip), vehicle: saline) was 86 % of control, the T/C (dose: 50.0 mg/kg/injection, schedule: Q01DX015 (ip), vehicle: saline) was 114 % of control and 121 % of control and the T/C (dose: 60.0 mg/kg/injection, schedule: Q01DX001 (ip), vehicle: saline) was 111 % of control. For the same compound, the T/C (dose: 60.0 mg/kg/injection, schedule: Q01DX009 (ip), vehicle: saline) was 112 % of control and 117 % of control, the T/C (dose: 75.0 mg/kg/injection, schedule: Q01DX009 (ip), vehicle: saline) was 115 % of control and the T/C [4] was 95 % of control and 97 % of control. For the same compound, the T/C [10] was 86 % of control and 90 % of control and 104 % of control, the T/C (dose: 120.0 mg/kg/injection, schedule: Q01DX001 (ip), vehicle: saline) was 107 % of control and the T/C [11] was 105 % of control and 110 % of control and 116 % of control. For the same compound, the T/C (dose: 150.0 mg/kg/injection, schedule: Q04DX003 (ip), vehicle: saline) was 123 % of control, the T/C [5] was 104 % of control and 105 % of control and 119 % of control and the T/C (dose: 250.0 mg/kg/injection, schedule: Q04DX003 (ip), vehicle: saline) was 150 % of control.

With NC(CSC(c1ccccc1)(c1ccccc1)c1ccccc1)C(=O)O (configuration not stated) the T/C (dose: 0.6 mg/kg/injection, schedule: Q01DX009 (ip), vehicle: Klucel (hydroxypropylcellulose) (HPC)) was 111 % of control, the T/C (dose: 1.2 mg/kg/injection, schedule: Q01DX009 (ip), vehicle: Klucel (hydroxypropylcellulose) (HPC)) was 114 % of control and 117 % of control and the T/C (dose: 2.5 mg/kg/injection, schedule: Q01DX009 (ip), vehicle: Klucel (hydroxypropylcellulose) (HPC)) was 117 % of control. For the same compound, the T/C (dose: 5.0 mg/kg/injection, schedule: Q01DX009 (ip), vehicle: Klucel (hydroxypropylcellulose) (HPC)) was 88 % of control and 120 % of control, the T/C (dose: 6.0 mg/kg/injection, schedule: Q01DX009 (ip), vehicle: Klucel (hydroxypropylcellulose) (HPC)) was 94 % of control and the T/C (dose: 6.2 mg/kg/injection, schedule: Q04DX003 (ip), vehicle: Klucel (hydroxypropylcellulose) (HPC)) was 108 % of control. The T/C (dose: 6.25 mg/kg/injection, schedule: Q01DX009 (ip), vehicle: Klucel (hydroxypropylcellulose) (HPC)) was 94 % of control, the T/C (dose: 10.0 mg/kg/injection, schedule: Q01DX009 (ip), vehicle: Klucel (hydroxypropylcellulose) (HPC)) was 102 % of control and the T/C (dose: 12.0 mg/kg/injection, schedule: Q01DX009 (ip), vehicle: Klucel (hydroxypropylcellulose) (HPC)) was 88 % of control. For the same compound, the T/C (dose: 12.5 mg/kg/injection, schedule: Q01DX009 (ip), vehicle: Klucel (hydroxypropylcellulose) (HPC)) was 94 % of control, the T/C (dose: 12.5 mg/kg/injection, schedule: Q04DX003 (ip), vehicle: Klucel (hydroxypropylcellulose) (HPC)) was 91 % of control and 94 % of control and 102 % of control and the T/C (dose: 20.0 mg/kg/injection, schedule: Q01DX009 (ip), vehicle: Klucel (hydroxypropylcellulose) (HPC)) was 102 % of control and 108 % of control. The T/C (dose: 25.0 mg/kg/injection, schedule: Q01DX009 (ip), vehicle: Klucel (hydroxypropylcellulose) (HPC)) was 91 % of control and 100 % of control, the T/C (dose: 25.0 mg/kg/injection, schedule: Q01DX009 (ip), vehicle: saline) was 94 % of control and 97 % of control and 109 % of control and the T/C (dose: 25.0 mg/kg/injection, schedule: Q04DX003 (ip), vehicle: Klucel (hydroxypropylcellulose) (HPC)) was 94 % of control and 97 % of control. For the same compound, the T/C [9] was 102 % of control, the T/C (dose: 37.5 mg/kg/injection, schedule: Q01DX001 (ip), vehicle: saline) was 102 % of control and 103 % of control (2×) and the T/C (dose: 50.0 mg/kg/injection, schedule: Q01DX009 (ip), vehicle: saline) was 105 % of control. For the same compound, the T/C (dose: 50.0 mg/kg/injection, schedule: Q04DX003 (ip), vehicle: saline) was 97 % of control, the T/C (dose: 75.0 mg/kg/injection, schedule: Q01DX001 (ip), vehicle: saline) was 95 % of control and 103 % of control and 110 % of control and the T/C [1] was 97 % of control. For the same compound, the T/C [4] was 100 % of control, the T/C [10] was 91 % of control and the T/C [11] was 90 % of control and 105 % of control and 106 % of control. The T/C [2] was 109 % of control and the T/C [3] was 118 % of control.

In the case of COc1ccc(NC(=S)Nc2ccccn2)cc1, the T/C [1] is reported as 100 % of control.

With COC(=O)C1(C)CCC(c2ccc(C)cc2)=C(CC(=O)O)C1 (configuration not stated) the T/C [4] was 97 % of control, the T/C [5] was 94 % of control and the T/C [6] was 94 % of control.
